Source: patent publication US20240262814A1, “MODULATORS OF TREX1” (Constellation Pharmaceuticals, Inc., priority 2021, published 2024)

Columns and labels:
human TREX1 [1] = target: T1, human TREX1 (Homo sapiens, UniProt Q9NSU2); experiment: hTREX1 Biochemical Assay (fluorescence, dsDNA substrate degradation); conditions: full length human TREX1, 4 h pre-incubation, 18 h reaction at 25° C.
T1 construct: N-terminally His-Tev tagged full length human TREX1; made in house; host or cells: E. coli
T1 sequence (Q9NSU2 1-314): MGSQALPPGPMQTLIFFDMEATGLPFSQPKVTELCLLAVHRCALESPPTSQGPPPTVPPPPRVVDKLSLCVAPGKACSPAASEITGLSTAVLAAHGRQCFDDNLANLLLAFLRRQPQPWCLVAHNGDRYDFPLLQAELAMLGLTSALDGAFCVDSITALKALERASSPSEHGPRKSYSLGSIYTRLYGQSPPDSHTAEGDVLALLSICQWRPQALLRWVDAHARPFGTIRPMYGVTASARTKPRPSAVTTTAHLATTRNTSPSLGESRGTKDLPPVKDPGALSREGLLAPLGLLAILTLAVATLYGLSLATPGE
Outline: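 His-Tev-tagged full-length E. coli-expressed enzyme (4 pM final) preincubated with compound 4 h at 25° C., then 60 nM quenched-fluorophore dsDNA added in Tris pH 7.4, 5 mM MgCl2, 1% DMSO. After 18 h at 25° C., EDTA-quenched; fluorescence 615 nm (ex 570 nm); IC50 from four-parameter fit versus EDTA and no-inhibitor controls.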

human TREX1 [2] = target: T1, human TREX1; experiment: TREX1 kinetics assays (TR-FRET association and dissociation with biotinylated probe); type: binding; conditions: for koff / kon: hTREX1, 25° C., global fit Kintek Explorer; for Kd / residence time: hTREX1, kinetic data
Experimental: Compound binding kinetics were assessed using a pair of TR-FRET assays which measure the proportion of protein bound to a biotinylated TREX1 inhibitor (“probe”).
N-terminally His-Tev tagged full length human TREX1 (expressed in E. coli and purified in house), complexed with Eu-W 1024-anti-6×His (“Eu”; PerkinElmer) in reaction buffer (50 mM Tris, 150 mM NaCl, 2 mM DTT, 0.1 mg/mL BSA, 0.01% (w/v) Tween-20, 5 mM MgCl2, pH 7.4) was combined with an equal volume of test compound in reaction buffer and incubated at 25° C. Concentrations at this stage were 1 nM TREX1/Eu complex, and four concentrations of compound (diluted from 10 mM stocks in 100% DMSO). At defined time points, 18 μL of this mixture was withdrawn and combined with 2 p L probe to a final concentration of 1 μM probe. After incubating for 30 seconds, 18 μL was withdrawn and combined with 2 μL streptavidin-allophycocyanin (“SA-APC”; PerkinElmer) to a final concentration of 1.5 μM SA-APC. Fifteen μL of this mixture was then immediately transferred to a 384-well Black ProxiPlate Plus (PerkinElmer) and read in an EnVision plate reader (PerkinElmer) measuring fluorescence at 615 nm and 665 nm following excitation w/337 nm laser light. Final concentrations were 0.8 nM TREX1/Eu complex, 0.9 μM probe, and 1.5 μM SA-APC.
N-terminally His-Tev tagged full length human TREX1 (expressed in E. coli and purified in house), complexed with Eu-W1024-anti-6×His (“Eu”; PerkinElmer) in reaction buffer (50 mM Tris, 150 mM NaCl, 2 mM DTT, 0.1 mg/mL BSA, 0.01% (w/v) Tween-20, 5 mM MgCl2, pH 7.4) was combined with an equal volume of test compound in reaction buffer. Concentrations at this stage were 100 nM TREX1/Eu complex and 100 nM test compound (diluted from 10 mM stocks in 100% DMSO). Following an equilibration period of at least an hour at 25° C., this mixture was diluted 100-fold into reaction buffer containing 1 μM probe, and incubated at 25° C. At defined time points, 36 μL of the reaction mixture was withdrawn and combined with 4 μL streptavidin-allophycocyanin (“SA-APC”; PerkinElmer) to a final concentration of 1.5 μM SA-APC. Fifteen μL of this mixture was then immediately transferred to duplicate wells of a 384-well Black ProxiPlate Plus (PerkinElmer) and read in an EnVision plate reader (PerkinElmer) measuring fluorescence at 615 nm and 665 nm following excitation w/ 337 nm laser light.
The TR-FRET signal, a ratio of 665 nm/615 nm emitted light, was converted to fraction enzyme bound to test compound by normalizing to low signal (no enzyme or test compound) and high signal (no test compound) controls. Data from both association and dissociation experiments were fitted globally using Kintek Explorer software, which computes the rate constants directly.

Compound	IC50 (human TREX1 [1]) [nM]	koff (human TREX1 [2]) [s⁻¹]	kon (human TREX1 [2]) [M⁻¹ s⁻¹]	Kd (human TREX1 [2]) [nM]	residence time (human TREX1 [2]) [min]
CC(c1nc(C(=O)Nc2cnoc2)c(O)c(=O)n1C)C(c1ccccc1)c1ccccc1 (single isomer, unassigned) [Example 1 Isomer 1, 2-(1,1-diphenylpropan-2-yl)-5-hydroxy-N-(isoxazol-4-yl)-1-methyl-6-oxo-1,6-dihydro pyrimidine-4-carboxamide]	> 100	–	–	–	–
CC(c1nc(C(=O)Nc2cnoc2)c(O)c(=O)n1C)C(c1ccccc1)c1ccccc1 (single isomer, unassigned) [Example 1 Isomer 2, 2-(1,1-diphenylpropan-2-yl)-5-hydroxy-N-(isoxazol-4-yl)-1-methyl-6-oxo-1,6-dihydro pyrimidine-4-carboxamide]	1 to 10	0.000192	50300	3.8	87
C[C@H](c1nc(C(=O)Nc2cnoc2)c(O)c(=O)n1C)[C@H](c1ccccc1)c1ccccc1Cl (single isomer, unassigned) [Example 2 Isomer 3, 2-(1-(2-chlorophenyl)-1-phenylpropan-2-yl)-5-hydroxy-N-(isoxazol-4-yl)-1-methyl-6-oxo-1,6-dihydropyrimidine-4-carboxamide]	< 1	5.48e-05	159000	0.345	304
CC(c1nc(C(=O)Nc2cnoc2)c(O)c(=O)n1C)C(c1ccccc1)c1ccccc1C#N (single isomer, unassigned) [Example 3 Isomer 4]	< 1	3.6e-05	164000	0.219	463
CC(c1nc(C(=O)Nc2cnoc2)c(O)c(=O)n1C)C(c1ccccc1C#N)c1ccccc1C#N (single isomer, unassigned) [Example 4 Isomer 2]	< 1	3.83e-05	907000	0.042	435
CC(c1nc(C(=O)Nc2cnoc2)c(O)c(=O)n1C)C(c1ccccc1)c1cc(F)ccc1C#N (single isomer, unassigned) [Example 6 Isomer 4]	< 1	3.37e-05	173000	0.194	495
CC(c1nc(C(=O)Nc2cnoc2)c(O)c(=O)n1C)C(c1ccccc1)c1cc(Cl)ccc1C#N (single isomer, unassigned) [Example 8 Isomer 2]	< 1	4.17e-05	116000	0.361	400
CC(c1nc(C(=O)Nc2cnoc2)c(O)c(=O)n1C)C(c1ccccc1)c1ccc(Cl)cc1C#N (single isomer, unassigned) [Example 9 Isomer 4]	< 1	2.07e-05	178000	0.116	806
CC(c1nc(C(=O)Nc2cnoc2)c(O)c(=O)n1C)C(c1ccccc1Cl)c1ccccc1C#N (single isomer, unassigned) [Example 10 Isomer 1]	< 1	3.15e-05	448000	0.07	529
CC(c1nc(C(=O)Nc2cnoc2)c(O)c(=O)n1C)C(c1cc(F)cc(F)c1)c1ccccc1C#N (single isomer, unassigned) [Example 11 Isomer 3]	< 1	1.92e-05	257000	0.075	870
C[C@H](c1nc(C(=O)Nc2cnoc2)c(O)c(=O)n1C)[C@H](c1ccccc1)c1ccccc1C(F)(F)F (single isomer, unassigned) [Example 14 Isomer 2, 5-Hydroxy-N-(isoxazol-4-yl)-1-methyl-6-oxo-2-(1-phenyl-1-(2-(trifluoromethyl)phenyl)propan-2-yl)-1,6-dihydropyrimidine-4-carboxamide]	1 to 10	–	–	–	–
C[C@H](c1nc(C(=O)Nc2cnoc2)c(O)c(=O)n1C)C(c1ccccc1Cl)c1ccccc1Cl (single isomer, unassigned) [Example 15 Isomer 1, 2-(1,1-bis(2-chlorophenyl)propan-2-yl)-5-hydroxy-N-(isooxazol-4-yl)-1-methyl-6-oxo-1,6-dihydropyrimidine-4-carboxamide]	< 1	4.77e-05	260000	0.183	350
CC(c1nc(C(=O)Nc2cnoc2)c(O)c(=O)n1C)C(c1ccccc1)c1cc(C(=O)N(C)C)ccc1C#N (single isomer, unassigned) [Example 17 Isomer 3]	< 1	–	–	–	–
Cn1c([C@H](C(c2ccccc2)c2ccccc2)C(F)(F)F)nc(C(=O)Nc2cnoc2)c(O)c1=O (single isomer, unassigned) [Example 20 Isomer 1, 5-Hydroxy-N-(isoxazol-4-yl)-1-methyl-6-oxo-2-(1,1,1-trifluoro-3,3-diphenylpropan-2-yl)-1,6-dihydropyrimidine-4-carboxamide]	10 to 100	–	–	–	–
Cn1c([C@@H](C(c2ccccc2C#N)c2ccccc2C#N)C(F)(F)F)nc(C(=O)Nc2cnoc2)c(O)c1=O (single isomer, unassigned) [Example 21 Isomer 1, 2-(3,3-bis(2-cyanophenyl)-1,1,1-trifluoropropan-2-yl)-5-hydroxy-N-(isoxazol-4-yl)-1-methyl-6-oxo-1,6-dihydropyrimidine-4-carboxamide]	< 1	–	–	–	–
